# Measured values as given in PubChem BioAssay (NCI).
#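 Five compound concentrations were applied to cells in 96-well plates for 48 hours; endpoints were derived by simple linear interpolation of the resulting dose-response curve. TGI: total growth inhibition.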
# Tests used:
# Test in all cases: growth of human tumour cells (NCI), 48 h
# [1] = test system: T-47D breast
# [2] = test system: SW-620 colon
# [3] = test system: UACC-62 melanoma
# [4] = test system: PC-3 prostate
# [5] = test system: HOP-92 NSCLC
# [6] = test system: CCRF-CEM leukemia
# [7] = test system: SF-539 CNS
# [8] = test system: IGROV1 ovarian
# [9] = test system: MOLT-4 leukemia
# [10] = test system: NCI-H522 lung
# [11] = test system: M14 melanoma
# [12] = test system: SK-OV-3 ovarian
# [13] = test system: K-562 leukemia
# [14] = test system: UACC-257 melanoma
# [15] = test system: CAKI-1 renal
# [16] = test system: BT-549 breast
# [17] = test system: MDA-MB-435
# [18] = test system: ACHN renal
# [19] = test system: NCI/ADR-RES ovarian
# [20] = test system: UO-31 renal
# [21] = test system: A549 NSCLC
# [22] = test system: KM12 colon
# [23] = test system: OVCAR-5 ovarian
# [24] = test system: A498 renal
# [25] = test system: OVCAR-3 ovarian
# [26] = test system: 786-0 renal
# [27] = test system: NCI-H23 lung
# [28] = test system: MCF7 breast
# [29] = test system: HT29 colon
# [30] = test system: DU-145 prostate
# [31] = test system: HL-60(TB) leukemia
# [32] = test system: EKVX NSCLC
# [33] = test system: TK-10 renal
# [34] = test system: NCI-H460 lung
# [35] = test system: OVCAR-4 ovarian
# [36] = test system: SR leukemia
# [37] = test system: MDA-N
# [38] = test system: LOX IMVI melanoma
# [39] = test system: SK-MEL-5 melanoma
# [40] = test system: MALME-3M melanoma
# [41] = test system: HS 578T breast
# [42] = test system: HOP-62 NSCLC
# [43] = test system: SF-295 CNS
# [44] = test system: U251 CNS
# [45] = test system: SK-MEL-28 melanoma
# [46] = test system: HCT-15 colon
# [47] = test system: OVCAR-8 ovarian
# [48] = test system: SNB-19 CNS
# [49] = test system: MDA-MB-231 breast
# [50] = test system: SN12C renal
# [51] = test system: COLO 205 colon
# [52] = test system: SF-268 CNS
# [53] = test system: HCT-116 colon
# [54] = test system: SK-MEL-2 melanoma
# [55] = test system: RPMI-8226 leukemia
# [56] = test system: NCI-H226 lung
# [57] = test system: HCC-2998 colon
# [58] = test system: RXF 393 renal
# [59] = test system: SNB-75 CNS
compound,measurement,setting,value
Cc1cc(C)c2c(n1)S(=O)(=O)N(CCCN1CCN(c3cccc(Cl)c3)CC1)/C(=C(\O)c1ccccc1)C2=O,TGI,[1],> 100 µM
same,TGI,[2],> 100 µM
same,TGI,[3],> 100 µM
same,TGI,[4],> 100 µM
same,TGI,[5],77.4 µM
same,TGI,[6],> 100 µM
same,TGI,[7],> 100 µM
same,TGI,[8],> 100 µM
same,TGI,[9],44.4 µM
same,TGI,[10],> 100 µM
same,TGI,[11],> 100 µM
same,TGI,[12],> 100 µM
same,TGI,[13],> 100 µM
same,TGI,[14],55.4 µM
same,TGI,[15],62.2 µM
same,TGI,[16],> 100 µM
same,TGI,[17],> 100 µM
same,TGI,[18],> 100 µM
same,TGI,[19],> 100 µM
same,TGI,[20],74 µM
same,TGI,[21],> 100 µM
same,TGI,[22],> 100 µM
same,TGI,[23],> 100 µM
same,TGI,[24],> 100 µM
same,TGI,[25],> 100 µM
same,TGI,[26],> 100 µM
same,TGI,[27],89.1 µM
same,TGI,[28],> 100 µM
same,TGI,[29],> 100 µM
same,TGI,[30],> 100 µM
same,TGI,[31],71 µM
same,TGI,[32],82.7 µM
same,TGI,[33],78.5 µM
same,TGI,[34],52.5 µM
same,TGI,[35],88.8 µM
same,TGI,[36],68.9 µM
same,TGI,[37],> 100 µM
same,TGI,[38],> 100 µM
same,TGI,[39],60.2 µM
same,TGI,[40],> 100 µM
same,TGI,[41],> 100 µM
same,TGI,[42],> 100 µM
same,TGI,[43],95.9 µM
same,TGI,[44],> 100 µM
same,TGI,[45],> 100 µM
same,TGI,[46],> 100 µM
same,TGI,[47],> 100 µM
same,TGI,[48],> 100 µM
same,TGI,[49],> 100 µM
same,TGI,[50],93.4 µM
same,TGI,[51],36.9 µM
same,TGI,[52],> 100 µM
same,TGI,[53],92.5 µM
same,TGI,[54],> 100 µM
C=C1CCCC(C)(C)[C@H]1C/C=C1\CCOC1=O,TGI,[1],> 100 µM
same,TGI,[2],35.2 µM
same,TGI,[3],> 100 µM
same,TGI,[4],31.5 µM
same,TGI,[5],26.6 µM
same,TGI,[6],> 100 µM
same,TGI,[7],34.5 µM
same,TGI,[55],> 100 µM
same,TGI,[8],28.8 µM
same,TGI,[9],38.9 µM
same,TGI,[10],40.4 µM
same,TGI,[11],34 µM
same,TGI,[12],57 µM
same,TGI,[13],26.5 µM
same,TGI,[14],24.5 µM
same,TGI,[15],30.2 µM
same,TGI,[16],26.9 µM
same,TGI,[17],22 µM
same,TGI,[18],29.4 µM
same,TGI,[19],26.8 µM
same,TGI,[20],29.6 µM
same,TGI,[21],26.6 µM
same,TGI,[22],31.8 µM
same,TGI,[24],31 µM
same,TGI,[25],34.8 µM
same,TGI,[26],28.7 µM
same,TGI,[27],39 µM
same,TGI,[28],25.4 µM
same,TGI,[29],28 µM
same,TGI,[30],26.2 µM
same,TGI,[31],43.8 µM
same,TGI,[32],30 µM
same,TGI,[33],34.5 µM
same,TGI,[34],24.4 µM
same,TGI,[35],26.8 µM
same,TGI,[36],> 100 µM
same,TGI,[37],33.3 µM
same,TGI,[56],24.9 µM
same,TGI,[38],23.6 µM
same,TGI,[39],21.8 µM
same,TGI,[40],26.9 µM
same,TGI,[41],44.3 µM
same,TGI,[42],39.9 µM
same,TGI,[43],30.8 µM
same,TGI,[44],30.4 µM
same,TGI,[45],29.6 µM
same,TGI,[46],> 100 µM
same,TGI,[47],38.5 µM
same,TGI,[48],30.7 µM
same,TGI,[49],31.6 µM
same,TGI,[50],35.2 µM
same,TGI,[57],> 100 µM
same,TGI,[51],33.4 µM
same,TGI,[52],23.9 µM
same,TGI,[53],25.8 µM
same,TGI,[54],> 100 µM
COC1CC(OC2CCC3(C)C(=CCC4C3C(OC(C)=O)C(OC(=O)CC(C)C)C3(C)C(C(C)=O)CCC43O)C2)OC(C)C1OC1CC(OC)C(OC2CC(OC)C(OC3OC(C)C(O)C(OC)C3O)C(C)O2)C(C)O1 (stereo not drawn),TGI,[1],> 100 µM
same,TGI,[2],94.7 µM
same,TGI,[3],> 100 µM
same,TGI,[4],> 100 µM
same,TGI,[5],57.6 µM
same,TGI,[6],72.6 µM
same,TGI,[7],51.2 µM
same,TGI,[55],45.8 µM
same,TGI,[8],> 100 µM
same,TGI,[9],45.6 µM
same,TGI,[10],> 100 µM
same,TGI,[11],> 100 µM
same,TGI,[12],> 100 µM
same,TGI,[13],> 100 µM
same,TGI,[14],> 100 µM
same,TGI,[15],> 100 µM
same,TGI,[16],69.6 µM
same,TGI,[17],63.5 µM
same,TGI,[18],> 100 µM
same,TGI,[20],> 100 µM
same,TGI,[21],> 100 µM
same,TGI,[22],> 100 µM
same,TGI,[23],> 100 µM
same,TGI,[24],> 100 µM
same,TGI,[25],> 100 µM
same,TGI,[26],59.9 µM
same,TGI,[27],> 100 µM
same,TGI,[28],93.6 µM
same,TGI,[29],42.8 µM
same,TGI,[30],> 100 µM
same,TGI,[31],74.5 µM
same,TGI,[32],> 100 µM
same,TGI,[33],> 100 µM
same,TGI,[34],> 100 µM
same,TGI,[35],> 100 µM
same,TGI,[36],62 µM
same,TGI,[37],> 100 µM
same,TGI,[58],47.2 µM
same,TGI,[56],89.9 µM
same,TGI,[38],43.5 µM
same,TGI,[39],42.7 µM
same,TGI,[40],> 100 µM
same,TGI,[41],> 100 µM
same,TGI,[42],> 100 µM
same,TGI,[43],> 100 µM
same,TGI,[44],> 100 µM
same,TGI,[45],> 100 µM
same,TGI,[46],> 100 µM
same,TGI,[47],> 100 µM
same,TGI,[48],> 100 µM
same,TGI,[49],65.6 µM
same,TGI,[59],70 µM
same,TGI,[50],> 100 µM
same,TGI,[57],70.3 µM
same,TGI,[51],45 µM
same,TGI,[52],> 100 µM
same,TGI,[53],60.6 µM
same,TGI,[54],93.3 µM
